Test results as given in patent US10905651B1, “Zeinmersome nanocarriers for drug delivery to the liver” (King Abdulaziz University, priority 2020, dated 2021).

Columns and labels:
AT1 receptor = molecular target: T1, AT1 receptor (Homo sapiens, UniProt P30556); conditions: cited from earlier work
T1 sequence (P30556 1-359): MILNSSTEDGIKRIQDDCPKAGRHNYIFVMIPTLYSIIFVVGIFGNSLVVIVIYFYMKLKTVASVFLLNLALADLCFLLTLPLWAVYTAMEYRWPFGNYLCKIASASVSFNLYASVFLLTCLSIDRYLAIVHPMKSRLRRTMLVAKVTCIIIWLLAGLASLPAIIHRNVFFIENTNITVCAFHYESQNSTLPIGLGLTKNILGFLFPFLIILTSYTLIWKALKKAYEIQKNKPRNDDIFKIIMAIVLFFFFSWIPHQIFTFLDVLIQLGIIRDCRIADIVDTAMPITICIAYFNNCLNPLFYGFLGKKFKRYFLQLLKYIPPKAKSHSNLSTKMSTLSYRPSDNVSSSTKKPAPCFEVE

[1] = tested on: TAA-induced hepatic fibrosis rats; assay: Histopathology of hepatic sections in TAA-induced hepatic fibrosis rats; type: in vivo, rat; conditions: two months, H&E
Method: Rats were given freshly prepared TAA (0.9% w/v in saline solution, 200 mg/kg, ip) twice weekly for eight weeks. A normal control (NC) group of rats (n=8) received injections of the vehicle twice weekly for eight weeks. The TAA-treated rats were randomly assigned to groups (n=8), including a test group for each dosage of a free drug (not encapsulated in ZMS), each dosage of zeinmersomes encapsulating the drug, and a positive control group (PC) having hepatic fibrosis but receiving a vehicle-only treatment instead of a drug treatment. Five groups of rats (n=8) were given freshly prepared TAA (0.9% w/v in saline solution, 200 mg/kg, ip) twice weekly for eight weeks and a normal control (NC) group received vehicle injections, as described in Example 4. The five TAA groups included a positive control group (PC, untreated) and four groups treated with low and high doses (2 and 4 mg/kg/day) of OM as raw drug (OL & OH, respectively) and the same low and high doses (2 and 4 mg/kg/day) of OM formulated as zeinmersomes (OLZMS & OHZMS, respectively). […] The plasma levels of ALT and AST and the homogenate levels of IL-6, reduced glutathione (GSH), TNF-α, malondialdehyde (MDA), and protein content were measured using ELISA kits (MyBioSource, Inc. CA, USA). In addition, the concentrations of olmesartan in plasma and liver homogenate were measured by HPLC/MS. […]

[2] = tested on: methotrexate-induced intestinal mucositis; conditions: pretreatment with 0.5, 1.0, or 5.0 mg/kg; cited from earlier work

CCCc1nc(C(C)(C)O)c(C(=O)OCc2oc(=O)oc2C)n1Cc1ccc(-c2ccccc2-c2nnn[nH]2)cc1 [OM, (5-methyl-2-oxo-1,3-dioxol-4-yl)methyl 5-(2-hydroxypropan-2-yl)-2-propyl-3-[[4-[2-(2H-tetrazol-5-yl)phenyl]phenyl]methyl]imidazole-4-carboxylate]
AT1 receptor blockade (AT1 receptor): competitive and selective AT1 receptor blocker | liver histopathology (fibrosis, inflammatory infiltration, hepatocytic degeneration) ([1]; high dose 4 mg/kg/day oral): mild improvement | liver histopathology (fibrosis, inflammatory infiltration, hepatocytic degeneration) ([1]; low dose 2 mg/kg/day oral): no improvement | enteropathy (diarrhea, weight loss, decreased sucrose activity) [2]: caused enteropathy | inflammatory infiltration, vascular congestion, ulcerations, hemorrhagic areas; myeloperoxidase, IL-1β and TNF-α levels [2]: decreased
